Data set [1] concerns HepG2. Briefly: cells. In kind it is functional, cell-based. Particulars: Homo sapiens, HepG2, 48 h.
Data set [2] can be described thus: Cytotoxicity human L02 cells after 48 hrs by WST-8 based CCK8 assay. Particulars: L02, 48 h. The data set is classed as cell-based. In general terms: Formazan colour is commonly taken as a measure of viable cells.
Data set [3] addresses Transforming protein RhoA (Homo sapiens) (UniProt P61586). Briefly: Inhibition of RhoA activation in human HepG2 cells assessed as decrease of membrane-associated protein level at 10 uM after 24 hrs by Western blot analysis. The data set is classed as cell-based. Background: A western blot detects proteins with antibodies after separation by electrophoresis.
Data set [4] addresses Protein kinase C delta type (Homo sapiens) (UniProt Q05655). Particulars: HepG2, 10 uM.
Description: Inhibition of PKCdelta phosphorylation at Ser643 in human HepG2 cells at 10 uM after 1 hr by Western blot analysis
For data set [5], the system named is HepG2. Briefly: Growth inhibition of human HepG2 cells at 16 uM after 24 to 72 hrs by WST-8 based CCK8 assay. In kind it is functional, cell-based.
The subject of a further data set is T98G. Briefly: Growth inhibition human T98G cells after 48 hrs by WST-8 based CCK8 assay. The data set is classed as cell-based.
Data set [6] deals with Transforming protein RhoA (Homo sapiens) (UniProt P61586). Briefly: Inhibition of RhoA activation in human L02 cells assessed as decrease of membrane-associated protein level at 16 uM after 24 hrs by Western blot analysis. The data set is classed as cell-based.
The test system of data set [7] is HepG2. Briefly: Cell cycle arrest in human HepG2 cells assessed as effect on Chk2 protein level in nucleus at 16 uM after 24 hrs by Western blot analysis. In kind it is functional, cell-based.
Data set [8] concerns HepG2. Briefly: Cell cycle arrest in human HepG2 cells assessed as effect on cytoplasmic Chk2 protein level at 16 uM after 24 hrs by Western blot analysis. In kind it is functional, cell-based.
In a further data set the test system is HeLa. The experiment in a line: Growth inhibition human HeLa cells after 48 hrs by WST-8 based CCK8 assay. The data set is classed as functional, cell-based.
Data set [9] has as its system HepG2. The experiment in a line: Cell cycle arrest in human HepG2 cells assessed as accumulation at S phase at 16 uM after 24 hrs using propidium iodide staining by flow cytometry (reference value: 21.6 %). The data set is classed as functional. For orientation: A flow cytometer gives signals particle by particle.
The target in data set [10] is Protein kinase C delta type (Homo sapiens) (UniProt Q05655). Briefly: Inhibition of PKCdelta phosphorylation at Ser643 in human L02 cells by Western blot analysis. The data set is classed as cell-based.
Data set [11] in a line: Cell cycle arrest in human L02 cells assessed as effect on cytoplasmic Chk2 protein level at 16 uM after 24 hrs by Western blot analysis. As to conditions: l02, 24 h. The data set is classed as ADME, cell-based.
The target of data set [12] is Protein kinase C delta type (Homo sapiens) (UniProt Q05655). The experiment in a line: Inhibition of PKCdelta phosphorylation at Thr505 in human L02 cells by Western blot analysis. In kind it is cell-based.
Data set [13] has as its system HepG2. The experiment in a line: Cell cycle arrest in human HepG2 cells assessed as decrease in Chk1 protein level in nucleus at 16 uM after 24 hrs by Western blot analysis. In kind it is functional, cell-based.
The nature of data set [14]: Cell cycle arrest in human L02 cells assessed as effect on Chk1 protein level in nucleus at 16 uM after 24 hrs by Western blot analysis. As to conditions: l02, 24 h. The data set is classed as ADME, cell-based.
A short description of data set [15]: Cell cycle arrest in human L02 cells assessed as effect on cytoplasmic Chk1 protein level at 16 uM after 24 hrs by Western blot analysis. The data set is classed as ADME, cell-based. As to conditions: l02, 24 h.
Data set [16] has as its system HepG2. Briefly: Cytotoxicity against human HepG2 cells assessed as increase in cells with filamentous protrusions at 16 uM after 24 hrs using […] staining by confocal microscopy. In kind it is functional, cell-based.
For the next data set, the system named is MDA-MB-231. The experiment in a line: Growth inhibition human MDA-MB-231 cells after 48 hrs by WST-8 based CCK8 assay. In kind it is functional, cell-based. Particulars: MDA-MB-231, 48 h.
In data set [17] the target is Protein kinase C delta type (Homo sapiens) (UniProt Q05655). Briefly: Inhibition of PKCdelta phosphorylation at Ser643 in human HepG2 cells by Western blot analysis. The data set is classed as cell-based.
The test system of data set [18] is HepG2. The experiment in a line: Cell cycle arrest in human HepG2 cells assessed as accumulation at G2/M phase at 16 uM after 24 hrs using propidium iodide staining by flow cytometry (reference value: 6.9 %). The data set is classed as functional.
Data set [19] concerns the target PKC alpha and beta-2 (Homo sapiens) (UniProt P17252+P05771). Briefly: Inhibition of PKCalpha/beta2 phosphorylation at Thr 638/641 in human HepG2 cells by Western blot analysis. In kind it is cell-based.
Data set [20] concerns the target Transforming protein RhoA (Homo sapiens) (UniProt P61586). The experiment in a line: Inhibition of RhoA activation in human HepG2 cells assessed as decrease of membrane-associated protein level at 16 uM after 24 hrs by Western blot analysis. The data set is classed as cell-based.
Data set [21] concerns HepG2. Briefly: Cell cycle arrest in human HepG2 cells assessed as increase in cytoplasmic Chk1 protein level at 16 uM after 24 hrs by Western blot analysis. The data set is classed as functional, cell-based.
For data set [22], the system named is HepG2. Briefly: Growth inhibition of human HepG2 cells at 4 uM after 24 to 72 hrs by WST-8 based CCK8 assay. The data set is classed as functional, cell-based.
Data set [23] has as its system HepG2. The experiment in a line: Induction of apoptosis in human HepG2 cells at 16 uM after 24 hrs using propidium iodide staining by flow cytometry. In kind it is functional, cell-based.
Data set [24] deals with HepG2. Briefly: Cell cycle arrest in human HepG2 cells assessed as accumulation at G0/G1 phase at 16 uM after 24 hrs using propidium iodide staining by flow cytometry (reference value: 71.5 %). In kind it is functional.
A short description of data set [25]: Growth inhibition human CNE2 cells after 48 hrs by WST-8 based CCK8 assay. The data set is classed as functional, cell-based. Particulars: CNE-2, 48 h.
For data set [26], the target named is Protein kinase C iota type/zeta type (Homo sapiens) (UniProt P41743+Q05513). Briefly: Inhibition of PKCzeta/lambda phosphorylation at Thr410/403 in human HepG2 cells by Western blot analysis. In kind it is cell-based.
Data set [27] has as its system HepG2. Briefly: Cytotoxicity against human HepG2 cells assessed as decrease in F-actin staining at 16 uM after 24 hrs using […] staining by confocal microscopy. The data set is classed as functional, cell-based.
Data set [28] in a line: Cell cycle arrest in human L02 cells assessed as effect on Chk2 protein level in nucleus at 16 uM after 24 hrs by Western blot analysis. In kind it is ADME, cell-based. As to conditions: l02, 24 h.

We go through 17 compounds from ChEMBL document CHEMBL1926516, “Induction of cell cycle arrest by the carbazole alkaloid Clauszoline-I from Clausena vestita D. D. Tao via inhibition of the PKCδ phosphorylation” (Eur J Med Chem, 2012).

Activity calls are given as the source filed them. No cut-off for these calls is given here. A value given as a limit tells only on which side of the number the result lay.

Protein kinase C delta type (Homo sapiens), sequence (Q05655 whole entry, looked up): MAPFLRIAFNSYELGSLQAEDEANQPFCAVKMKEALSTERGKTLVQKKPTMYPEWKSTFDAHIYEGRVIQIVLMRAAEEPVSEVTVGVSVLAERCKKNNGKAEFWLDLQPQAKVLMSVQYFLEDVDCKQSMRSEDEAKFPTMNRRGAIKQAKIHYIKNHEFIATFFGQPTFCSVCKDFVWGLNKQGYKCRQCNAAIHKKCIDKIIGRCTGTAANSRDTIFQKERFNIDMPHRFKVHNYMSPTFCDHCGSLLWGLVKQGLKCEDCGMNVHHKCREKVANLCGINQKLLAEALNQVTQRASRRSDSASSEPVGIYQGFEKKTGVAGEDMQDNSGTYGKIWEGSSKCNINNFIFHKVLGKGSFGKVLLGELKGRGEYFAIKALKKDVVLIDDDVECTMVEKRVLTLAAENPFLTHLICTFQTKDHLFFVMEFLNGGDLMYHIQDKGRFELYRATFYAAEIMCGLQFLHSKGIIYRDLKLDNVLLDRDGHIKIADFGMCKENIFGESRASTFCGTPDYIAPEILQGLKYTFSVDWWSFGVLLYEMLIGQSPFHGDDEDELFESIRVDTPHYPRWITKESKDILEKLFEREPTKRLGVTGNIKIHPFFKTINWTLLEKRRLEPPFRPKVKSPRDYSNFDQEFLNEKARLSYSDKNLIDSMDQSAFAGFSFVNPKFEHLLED
Transforming protein RhoA (Homo sapiens), sequence (P61586 whole entry): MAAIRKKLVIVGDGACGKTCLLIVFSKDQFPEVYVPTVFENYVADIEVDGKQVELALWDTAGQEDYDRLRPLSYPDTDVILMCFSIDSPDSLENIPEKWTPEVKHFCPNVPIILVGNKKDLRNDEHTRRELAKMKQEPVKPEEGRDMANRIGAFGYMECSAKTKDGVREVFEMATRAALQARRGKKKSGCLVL
Protein kinase C iota type/zeta type (Homo sapiens), sequence (P41743 whole entry, looked up): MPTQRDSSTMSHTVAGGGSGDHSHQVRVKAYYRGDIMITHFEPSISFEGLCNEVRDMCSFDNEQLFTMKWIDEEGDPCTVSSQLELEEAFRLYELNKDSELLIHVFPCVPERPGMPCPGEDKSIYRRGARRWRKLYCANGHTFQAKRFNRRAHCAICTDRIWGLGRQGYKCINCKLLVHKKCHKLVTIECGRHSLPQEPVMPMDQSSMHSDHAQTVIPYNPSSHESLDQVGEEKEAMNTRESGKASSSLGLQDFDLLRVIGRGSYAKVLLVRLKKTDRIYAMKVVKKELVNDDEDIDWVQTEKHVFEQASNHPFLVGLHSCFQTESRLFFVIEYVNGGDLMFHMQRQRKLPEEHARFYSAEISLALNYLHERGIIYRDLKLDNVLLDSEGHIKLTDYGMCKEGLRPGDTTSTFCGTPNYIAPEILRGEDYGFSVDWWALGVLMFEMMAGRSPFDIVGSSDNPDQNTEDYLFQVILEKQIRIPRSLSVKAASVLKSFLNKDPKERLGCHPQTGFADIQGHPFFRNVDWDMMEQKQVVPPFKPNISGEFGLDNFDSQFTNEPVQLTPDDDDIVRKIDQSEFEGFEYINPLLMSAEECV
Protein kinase C iota type/zeta type (Homo sapiens), sequence (Q05513 whole entry, looked up): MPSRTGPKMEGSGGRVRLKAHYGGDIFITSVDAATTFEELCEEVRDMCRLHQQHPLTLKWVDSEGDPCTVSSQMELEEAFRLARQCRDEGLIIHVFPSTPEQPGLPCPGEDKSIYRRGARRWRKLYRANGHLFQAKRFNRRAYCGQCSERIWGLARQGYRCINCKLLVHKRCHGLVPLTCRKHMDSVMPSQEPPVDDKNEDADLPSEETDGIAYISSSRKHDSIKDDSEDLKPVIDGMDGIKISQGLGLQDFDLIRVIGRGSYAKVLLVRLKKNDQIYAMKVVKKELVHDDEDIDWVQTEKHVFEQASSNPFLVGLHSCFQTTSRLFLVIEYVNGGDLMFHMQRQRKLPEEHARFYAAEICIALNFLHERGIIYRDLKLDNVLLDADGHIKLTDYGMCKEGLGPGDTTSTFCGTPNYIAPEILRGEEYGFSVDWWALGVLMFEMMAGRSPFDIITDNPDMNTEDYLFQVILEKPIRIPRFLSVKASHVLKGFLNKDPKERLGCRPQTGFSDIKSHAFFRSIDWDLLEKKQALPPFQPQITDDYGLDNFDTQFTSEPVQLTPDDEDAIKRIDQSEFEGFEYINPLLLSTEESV
PKC alpha and beta-2 (Homo sapiens), sequence (P05771 whole entry, looked up): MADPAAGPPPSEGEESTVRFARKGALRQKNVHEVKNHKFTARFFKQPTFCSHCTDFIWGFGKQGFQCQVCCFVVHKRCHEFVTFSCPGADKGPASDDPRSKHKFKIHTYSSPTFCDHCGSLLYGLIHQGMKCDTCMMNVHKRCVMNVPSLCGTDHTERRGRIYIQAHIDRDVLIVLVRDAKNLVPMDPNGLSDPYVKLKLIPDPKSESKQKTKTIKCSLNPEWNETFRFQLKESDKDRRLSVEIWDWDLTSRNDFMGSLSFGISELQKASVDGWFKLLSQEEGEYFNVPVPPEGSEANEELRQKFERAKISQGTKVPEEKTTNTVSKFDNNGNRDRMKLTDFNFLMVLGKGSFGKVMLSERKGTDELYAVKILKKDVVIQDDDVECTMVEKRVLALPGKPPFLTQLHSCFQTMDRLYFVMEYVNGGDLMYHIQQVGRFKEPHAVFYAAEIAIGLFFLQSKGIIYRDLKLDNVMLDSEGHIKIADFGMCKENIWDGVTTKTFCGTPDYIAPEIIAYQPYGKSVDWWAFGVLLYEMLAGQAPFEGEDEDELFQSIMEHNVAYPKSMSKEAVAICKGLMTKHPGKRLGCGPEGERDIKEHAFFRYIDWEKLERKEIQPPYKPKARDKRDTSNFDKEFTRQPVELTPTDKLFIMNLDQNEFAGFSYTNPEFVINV

What is called IC50 is the concentration that gives 50% inhibition. For the compound `O=Cc1cc(O)c2[nH]c3ccc(O)cc3c2c1`, the IC50 in the data set on HepG2 [1] was 135 µM.

`Cc1cc2c(cc1O)[nH]c1ccccc12`: the IC50 in the data set with HepG2 [1] is 14.4 µM; in [2] it was 85.2 µM.

On to `COc1cc(=O)n(C)c2ccccc12`, for which the IC50 in the data set on HepG2 [1] is greater than 160 µM.

Turning to `COC(=O)c1ccc2[nH]c3ccccc3c2c1`, the IC50 in the data set on HepG2 [1] was determined as 36.9 µM.

In turn, `COc1ccc2c(c1)[nH]c1cc(O)c(C=O)cc12` gave an IC50 in the data set on HepG2 [1] of 28.6 µM.

On to `CC(=O)c1c(O)c(C)c(O)c(Cc2c(O)c3c(c(C(=O)/C=C/c4ccccc4)c2O)OC(C)(C)C=C3)c1O`, for which the inhibition result in [3] and in [4] was “Active” each time.

As for `COC(=O)c1cc(O)c2[nH]c3ccccc3c2c1` [CLAUSINE E], the “growth inhibition (GI)” value with HepG2 [5] and in the data set with HepG2 [22] was “Active” throughout. Moreover, the IC50 is 71.6 µM in the data set on T98G; 13.3 µM in the data set with HeLa; 37.1 µM in the data set on MDA-MB-231; 15.8 µM with HepG2 [1]; greater than 160 µM in data set [2]; 16.9 µM in data set [25]. Further, the inhibition result in [6], in [10], in data set [12], in [19] and in data set [26] was “inactive” throughout. Further, the outcome with HepG2 [7], with HepG2 [8] and in the data set with HepG2 [23] was inactive. Also, the Activity in the data set on HepG2 [9] is reported as 31.1%; in data set [11], “Non-toxic”; in data set [14], “Non-toxic”; in [15], “Non-toxic”; with HepG2 [18], 13.1%; in the data set with HepG2 [24] it was 55.9%. In [28], the Activity result is given as “Non-toxic”. The outcome in the data set with HepG2 [13], in the data set on HepG2 [16], in the data set with HepG2 [21] and with HepG2 [27] was Active. Also, the inhibition result in data set [17] was “Dose-dependent effect”. Also, in data set [20], the inhibition entry was “Active”.

`COc1ccc2c(c1)[nH]c1cc(OC)c(C(=O)O)cc12` [CLAUSINE K] had a concentration for half-maximal inhibition (IC50) in the data set with HepG2 [1] of 24.4 µM.

For `O=Cc1cc2c(cc1O)[nH]c1cc(O)ccc12` [CLAUSINE O], the IC50 with HepG2 [1] came out at 32.8 µM.

In the data set on HepG2 [1], `COC(=O)c1cc2c(cc1OC)[nH]c1cc(OC)ccc12` [CLAUSZOLINE C] gave an IC50 greater than 160 µM.

Regarding `COc1ccc2c(c1)[nH]c1ccc(C=O)cc12` [CLAUSZOLINE K], the “growth inhibition (GI)” value in the data set on HepG2 [5] and with HepG2 [22] was “Active” in each case. For the same compound, the IC50 turned out to be 4.23 µM in the data set on HepG2 [1] and 72.5 µM in [2].

In the case of `COc1c2ccccc2nc2occc12` [DICTAMNINE], half-maximal inhibition in the data set with HepG2 [1] (IC50) was put at 55.2 µM.

In the data set on HepG2 [1], `COc1c2ccoc2nc2c(OC)cccc12` [GAMMA-FAGARINE] returned an IC50 greater than 160 µM.

Turning to `Cc1cc2c([nH]c3ccccc32)c2c1OC(C)(C)C=C2` [GRINIMIBINE], the IC50 with HepG2 [1] was greater than 160 µM.

With `COc1ccc2c(c1)[nH]c1cc(OC)c(C=O)cc12` [LANSINE], half-maximal inhibition in the data set on HepG2 [1] (IC50) was put at 102 µM.

`O=Cc1cc2c(cc1O)[nH]c1ccccc12` [MUKONAL] had an IC50 in the data set with HepG2 [1] of 65.9 µM.

Compound `COC(=O)c1cc2c(cc1O)[nH]c1ccccc12` [MUKONIDINE] came in with an IC50 in the data set on HepG2 [1] greater than 160 µM.
